From patent US6869783B1, “Method for producing chiral carboxylic acids from nitriles with the assistance of a nitrilase or microoganisms which contain a gene for the nitrilase” (BASF Aktiengesellschaft, priority 1998, dated 2005)

tested on: nitrilase 1650; experiment: Conversion of various nitriles with nitrilase 1650 (NH4 ions in supernatant, microtiter plate); assay type: biochemical, Alcaligenes faecalis 1650; parameters: Activity: unit not given here; conditions: 10 mM substrate, 2 g/l dry biomass, 30° C, 2 hours, pH 7.2

For “α-(3-heptyl)-nitro-triacetonitrile [Substrate 14]”, the “% conversion” value was 44.1%.

With “α-(3-heptyl)-nitro-triacetonitrile [Substrate 14]” the Activity was 0.35.

same assay, conditions: 10 mM substrate, 2 g/l dry biomass, 30° C, 2 hours, pH 7.2; average of a microtiter plate row

In the case of “α-(3-heptyl)-nitro-triacetonitrile [Substrate 14]”, the “μmol/l (amount of NH4 ions produced in the supernatant)” value (“μmol/l” for short) is reported as 84.8 µmol/L.

same assay, conditions: pH 7.2

Compared with `CC(C#N)c1ccccc1` (stereo not shown) [Substrate 2, 2-phenylpropionitrile], `CCC(C#N)c1ccccc1` (stereo not shown) [Substrate 3, 2-phenylbutyronitrile] is lower in “% conversion” value: 70.2% for the first, 44.3% for the second.

`N#CCc1ccccc1` [Substrate 4, benzyl cyanide] and `N#CCc1ccc(Cl)cc1` [Substrate 5, 4-chlorobenzyl cyanide] are the same in “% conversion” value: 100% for the first, 100% for the second.

With `N#CCc1ccc(Br)cc1` [Substrate 6, 4-bromobenzyl cyanide] the “% conversion” value was 100%.

Going from `CC(C#N)c1ccccc1` (stereo not shown) [Substrate 2, 2-phenylpropionitrile] to `CCC(C#N)c1ccccc1` (stereo not shown) [Substrate 3, 2-phenylbutyronitrile], the Activity falls from 4.1 to 0.1.

Going from `N#CCc1ccccc1` [Substrate 4, benzyl cyanide] to `N#CCc1ccc(Cl)cc1` [Substrate 5, 4-chlorobenzyl cyanide], the Activity falls from 9.2 to 8.9.

Going from `N#CCc1ccc(Br)cc1` [Substrate 6, 4-bromobenzyl cyanide] to `CCC#N` [Substrate 7, propionitrile], the Activity falls from 6.2 to 0.02.

`CCCCC#N` [Substrate 10, valeronitrile] showed an Activity of 0.47.

Compared with `CC(C#N)c1ccccc1` (stereo not shown) [Substrate 2, 2-phenylpropionitrile], `CCC(C#N)c1ccccc1` (stereo not shown) [Substrate 3, 2-phenylbutyronitrile] is lower in “μmol/l” value: 1001.1 µmol/L for the first, 24.4 µmol/L for the second.

Going from `N#CCc1ccccc1` [Substrate 4, benzyl cyanide] to `N#CCc1ccc(Cl)cc1` [Substrate 5, 4-chlorobenzyl cyanide], the “μmol/l” value falls from 2210.5 µmol/L to 2136.3 µmol/L.

Compared with `N#CCc1ccc(Br)cc1` [Substrate 6, 4-bromobenzyl cyanide], `CCC#N` [Substrate 7, propionitrile] is lower in “μmol/l” value: 1500.8 µmol/L for the first, 4.9 µmol/L for the second.

For `CCCCC#N` [Substrate 10, valeronitrile], the “μmol/l” value was 113.4 µmol/L.
